One assay deals with SRC (Homo sapiens (Human), UniProt P12931). Put plainly: kinase competition binding screen (liganded affinity beads, qPCR) at 1000 nM. To be noted: BTK versus SRC.
The next assay concerns the target BTK (Homo sapiens (Human), UniProt Q06187). Nature of the assay: ADP-Glo kinase biochemical assay, IC50 determination of BTK inhibitors. To be noted: for IC50: ADP-Glo, ATP 50 uM, values given as bins. How it is done: Biological Properties: IC50 Determination of BTK Inhibitors in ADP-Glo Kinase Biochemical Assay
Those skilled in the art will appreciate that a variety of assay formats may be used to determine the activity of the compounds described herein.
ADP-Glo™ Kinase Assay (Cat. V9102, 10000 Tests), Components: • 1×50 ml ADP-Glo™ Reagent, • 1×100 ml Kinase Detection Buffer, • 1× Kinase Detection Substrate (Lyophilized), • 1×5 ml Ultra Pure ATP, 10 mM • 1×5 ml ADP, 10 mM
• Enzyme concentration: 8 ng/5 ul. • ATP concentration: 50 uM • Substrate (peptide) concentration: 0.2 mg/ml. • Reaction buffer composition: 40 mM Tris-HCl pH7.5, 10 mM MgCl2, 2 mM MnCl2, 0.1 mg/mL BSA, 0.05 mM DTT. • Test compound concentration: DMSO≤0.5%. Methods: Compound Dosage Gradient Solution Preparation: […]
1× and 2× assay buffer were made at first. BTK kinase was diluted with 1× assay buffer but substrate was diluted with 2× assay buffer. 1 ul of diluted compound was transferred into 384-well assay plate, and then 2.0 ul of enzyme solution was added, and spun at 2000 rpm for 1 min. This mixture was incubated at 24° C. for 30 mins. 2 ul of peptide substrate/ATP mixture was added into the assay plate to start the reaction. The mixture was mixed thoroughly and then the 384-well plate was spun and incubated at 24° C. for 60 mins. 5.0 ul of ADP-Glo Reagent was added to stop the kinase activity and deplete the ATP unconsumed, and the plate was mixed thoroughly and incubated at 24° C. for 40 min. Then, 10.0 ul of Kinase Detection reagent was added, and the plate was centrifuged and then kept at 24° C. for 30 min. The luminescence signal was read on Envision.
IC50 values of compounds were calculated from a 4-parameter fit using Equation (2): Y=Bottom+(TOP-Bottom)/(1+((C/X)^hillslope)) Equation (2)
In Equation 2, Y represents % inhibition, X is the log value of the test compound concentration. IC50 was the concentration of compound where half of maximal inhibition was achieved.
All data was analyzed with IDBS XLfit5 software (ID Business Solutions Ltd., UK).
For orientation: ADP-Glo first removes unused ATP, then detects ADP through luciferase.

Molecules are shown by their SMILES. Bounds are passed on as bounds.

The IC50 is the concentration needed to halve the response being measured. Lower therefore signals greater potency in that assay.

BTK, sequence (Q06187 whole entry): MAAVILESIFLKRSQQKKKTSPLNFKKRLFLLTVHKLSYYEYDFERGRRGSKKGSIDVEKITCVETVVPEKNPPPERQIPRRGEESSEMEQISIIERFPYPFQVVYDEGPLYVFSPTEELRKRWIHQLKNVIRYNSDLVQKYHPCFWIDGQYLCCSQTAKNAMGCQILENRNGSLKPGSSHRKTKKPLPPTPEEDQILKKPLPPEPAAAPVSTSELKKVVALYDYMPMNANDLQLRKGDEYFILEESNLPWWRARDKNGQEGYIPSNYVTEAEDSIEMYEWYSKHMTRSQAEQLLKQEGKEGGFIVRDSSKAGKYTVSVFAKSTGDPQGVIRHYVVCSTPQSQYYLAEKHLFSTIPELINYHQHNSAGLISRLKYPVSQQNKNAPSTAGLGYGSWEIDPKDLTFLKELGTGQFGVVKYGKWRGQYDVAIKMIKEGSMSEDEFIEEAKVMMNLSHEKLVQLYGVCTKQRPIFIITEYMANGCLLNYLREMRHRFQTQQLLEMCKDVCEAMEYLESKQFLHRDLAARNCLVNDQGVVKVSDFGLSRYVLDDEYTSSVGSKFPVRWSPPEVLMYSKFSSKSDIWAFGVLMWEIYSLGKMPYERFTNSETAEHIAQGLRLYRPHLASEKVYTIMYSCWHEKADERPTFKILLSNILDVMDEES
SRC, sequence (P12931 whole entry, looked up): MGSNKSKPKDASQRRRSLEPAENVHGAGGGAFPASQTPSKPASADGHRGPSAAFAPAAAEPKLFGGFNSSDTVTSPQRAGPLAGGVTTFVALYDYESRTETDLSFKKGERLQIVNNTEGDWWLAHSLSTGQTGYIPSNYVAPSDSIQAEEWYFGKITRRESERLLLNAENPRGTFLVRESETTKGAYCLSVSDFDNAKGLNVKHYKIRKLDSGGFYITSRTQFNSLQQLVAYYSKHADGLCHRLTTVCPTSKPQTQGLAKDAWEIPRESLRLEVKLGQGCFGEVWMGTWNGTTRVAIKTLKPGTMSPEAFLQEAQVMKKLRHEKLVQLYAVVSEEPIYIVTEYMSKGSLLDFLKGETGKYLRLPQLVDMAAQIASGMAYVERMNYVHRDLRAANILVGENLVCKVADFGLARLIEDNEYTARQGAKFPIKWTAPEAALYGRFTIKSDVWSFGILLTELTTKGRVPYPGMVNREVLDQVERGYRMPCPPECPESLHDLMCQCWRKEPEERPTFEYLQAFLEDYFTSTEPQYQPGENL

For `C=CC(=O)N1CCN(c2ccc(C(N)=O)c(-c3ccc(Oc4ccccc4)cc3)n2)CC1` [Example 5, 6-(4-acryloylpiperazin-1-yl)-2-(4-phenoxyphenyl)nicotinamide], on SRC, the “Fold Difference” value is greater than 100x. The compound further had a half-inhibitory concentration (IC50) against BTK of less than 500 nM. At BTK (BTK, head-to-head assays), the “improvement in potency over Analogs 1 and 2” value is on record as roughly 100 ×.

On to `C=CC(=O)N1CCC(c2nc(-c3ccc(Oc4ccccc4)cc3)c(C(N)=O)s2)CC1` [Example 52, 2-(1-acryloylpiperidin-4-yl)-4-(4-phenoxyphenyl)thiazole-5-carboxamide], for which the IC50 at BTK was less than 500 nM.

For `C=CC(=O)N1CCN(c2nc(-c3ccc(Oc4ccccc4)cc3)c(C(N)=O)s2)CC1` [Example 51, 2-(4-acryloylpiperazin-1-yl)-4-(4-phenoxyphenyl)thiazole-5-carboxamide], on BTK, the concentration for half-maximal inhibition (IC50) is less than 500 nM.

`C=CS(=O)(=O)N1CCC(c2ccc(C(N)=O)c(-c3ccc(Oc4ccccc4)cc3)n2)CC1` [Example 63, 2-(4-phenoxyphenyl)-6-(1-(vinylsulfonyl)piperidin-4-yl)nicotinamide]: the IC50 against BTK is less than 500 nM.

Regarding `C=CC(=O)Nc1ccc(-c2ccc(C(N)=O)c(-c3ccc(Oc4ccccc4)cc3)n2)cc1` [Example 7, 6-(4-acrylamidophenyl)-2-(4-phenoxyphenyl)nicotinamide], the IC50 on BTK is less than 500 nM.

Consider `C=CC(=O)N1CCN(c2ccc(C(N)=O)c(-c3ccc(C)c(OC)c3)n2)CC1` [Example 29, 6-(4-acryloylpiperazin-1-yl)-2-(3-methoxy-4-methylphenyl)nicotinamide], for which the IC50 against BTK was less than 500 nM.

In the case of `C=CC(=O)NC1CCN(c2ccc(C(N)=O)c(-c3ccc(Oc4ccccc4)cc3)n2)C1` (stereo not drawn) [Example 10, 6-(3-acrylamidopyrrolidin-1-yl)-2-(4-phenoxyphenyl)nicotinamide], the 50% inhibitory concentration (IC50) against BTK was less than 500 nM.

In the case of `C=CC(=O)N1CCN(c2ccc(C(N)=O)c(-c3ccc(Oc4ccc(F)cc4)cc3)n2)CC1` [Example 37, 6-(4-acryloylpiperazin-1-yl)-2-(4-(4-fluorophenoxy)phenyl)nicotinamide], at BTK, the IC50 is less than 500 nM.

At BTK, `C=CC(=O)N1CCCC(c2nc(C(N)=O)c(-c3ccc(Oc4ccccc4)cc3)o2)C1` (stereo not drawn) [Example 54, 2-(1-acryloylpiperidin-3-yl)-5-(4-phenoxyphenyl)oxazole-4-carboxamide] registered a half-maximal inhibitory concentration (IC50) of less than 500 nM.

Take `C=CS(=O)(=O)N1CCN(c2ccc(C(N)=O)c(-c3ccc(Oc4ccccc4)cc3)n2)CC1` [Example 62, 2-(4-phenoxyphenyl)-6-(4-(vinylsulfonyl)piperazin-1-yl)nicotinamide]: the IC50 against BTK was less than 500 nM.

On BTK, `C=CC(=O)N1CCN(c2ccc(C(N)=O)c(-c3ccc(Oc4ccc(C#N)cc4)cc3)n2)CC1` [Example 27, 6-(4-acryloylpiperazin-1-yl)-2-(4-(4-cyanophenoxy)phenyl)nicotinamide] had an IC50 of no less than 1000 nM.

As for `C=CC(=O)N1CCN(c2ccc(C(N)=O)c(-c3ccc(OC4CCC(F)(F)CC4)cc3)n2)CC1` [Example 60, 6-(4-acryloylpiperazin-1-yl)-2-(4-((4,4-difluorocyclohexyl)oxy)phenyl)nicotinamide], the IC50 against BTK was less than 500 nM.

Regarding `C=CC(=O)Nc1cccc(-n2cc(C(N)=O)c(-c3ccc(Oc4ccccc4)cc3)n2)c1` [Example 18, 1-(3-acrylamidophenyl)-3-(4-phenoxyphenyl)-1H-pyrazole-4-carboxamide], the IC50 against BTK is less than 500 nM.

In turn, `C=CC(=O)N1CCC(n2cc(C(N)=O)c(-c3ccc(Oc4ccccc4)cc3)n2)C1` (stereo not drawn) [Example 13, 1-(1-acryloylpyrrolidin-3-yl)-3-(4-phenoxyphenyl)-1H-pyrazole-4-carboxamide] showed an IC50 at BTK of less than 500 nM.

Compound `C=CC(=O)N1CCC(c2nc(C(N)=O)c(-c3ccc(Oc4ccccc4)cc3)o2)C1` (stereo not drawn) [Example 48, 2-(1-acryloylpyrrolidin-3-yl)-5-(4-phenoxyphenyl)oxazole-4-carboxamide] displayed an IC50 on BTK of less than 500 nM.

Turning to `CN(C)C/C=C/C(=O)N1CCC(n2cc(C(N)=O)c(-c3ccc(Oc4ccccc4)cc3)n2)C1` (stereo not drawn) [Example 34, 1-(1-(4-(dimethylamino)but-2-enoyl)pyrrolidin-3-yl)-3-(4-phenoxyphenyl)-1H-pyrazole-4-carboxamide], on BTK, the IC50 was less than 500 nM.

Turning to `C=CC(=O)N1CCCC(c2nc(-c3ccc(Oc4ccccc4)cc3)c(C(N)=O)s2)C1` (stereo not drawn) [Example 40, 2-(1-acryloylpiperidin-3-yl)-4-(4-phenoxyphenyl)thiazole-5-carboxamide], on BTK, the IC50 is less than 500 nM.

In turn, `CN(C)C/C=C/C(=O)N1CCN(c2ccc(C(N)=O)c(-c3ccc(Oc4ccccc4)cc3)n2)CC1` [Example 25, (E)-6-(4-(4-(dimethylamino)but-2-enoyl)piperazin-1-yl)-2-(4-phenoxyphenyl)nicotinamide] showed an IC50 on BTK of less than 500 nM.

For the compound `C=CC(=O)N1CCN(c2ccc(C(N)=O)c(-c3ccc(Cl)cc3)n2)CC1` [Example 33, 6-(4-acryloylpiperazin-1-yl)-2-(4-chlorophenyl)nicotinamide], the IC50 against BTK was no less than 1000 nM.

On BTK, `C=CC(=O)N1CCN(c2ccc(C(N)=O)c(-c3ccc(Oc4ccccc4F)cc3)n2)CC1` [Example 38, 6-(4-acryloylpiperazin-1-yl)-2-(4-(2-fluorophenoxy)phenyl)nicotinamide] returned a concentration for half-maximal inhibition (IC50) of less than 500 nM.

On to `C=CC(=O)N1CCC(c2ccc(C(N)=O)c(-c3ccc(C(O)c4ccccc4)cc3)n2)CC1` (stereo not drawn) [Example 58, 6-(1-acryloylpiperidin-4-yl)-2-(4-(hydroxy(phenyl)methyl)phenyl)nicotinamide], for which the IC50 against BTK is less than 500 nM.

Consider `C=CC(=O)N1CCCC(c2nc(C(N)=O)c(-c3ccc(Oc4ccccc4)cc3)s2)C1` (stereo not drawn) [Example 45, 2-(1-acryloylpiperidin-3-yl)-5-(4-phenoxyphenyl)thiazole-4-carboxamide], for which the IC50 against BTK is less than 500 nM.

`C=CC(=O)N1CCN(c2ccc(C(N)=O)c(-c3ccc(Oc4ccccc4)c(F)c3)n2)CC1` [Example 36, 6-(4-acryloylpiperazin-1-yl)-2-(3-fluoro-4-phenoxyphenyl)nicotinamide] came in with an IC50 against BTK of less than 500 nM.

As for `C/C=C(\C#N)C(=O)N1CC(n2cc(C(N)=O)c(-c3ccc(Oc4ccccc4)cc3)n2)C1` [Example 59, (E)-1-(1-(2-cyanobut-2-enoyl)azetidin-3-yl)-3-(4-phenoxyphenyl)-1H-pyrazole-4-carboxamide], on BTK, the IC50 was less than 500 nM.

On to `C=CC(=O)N1CCN(c2ccc(C(N)=O)c(-c3ccc(Oc4ccccc4)cc3F)n2)CC1` [Example 39, 6-(4-acryloylpiperazin-1-yl)-2-(2-fluoro-4-phenoxyphenyl)nicotinamide], for which the concentration for half-maximal inhibition (IC50) against BTK was less than 500 nM.

At BTK, `C=CC(=O)N1CCN(c2ccc(C(N)=O)c(-c3ccc(Oc4ccccc4)cc3)c2)CC1` [Example 57, 5-(4-acryloylpiperazin-1-yl)-4′-phenoxybiphenyl-2-carboxamide] displayed an IC50 of less than 500 nM.

Turning to `C=CC(=O)N1CCN(c2ccc(C(N)=O)c(-c3ccc(Oc4ccccn4)cc3)n2)CC1` [Example 32, 6-(4-acryloylpiperazin-1-yl)-2-(4-(pyridin-2-yloxy)phenyl)nicotinamide], the half-maximal inhibitory concentration (IC50) against BTK was less than 500 nM.

As to `C=CC(=O)N1CCC(c2nc(-c3ccc(Oc4ccccc4)cc3)c(C(N)=O)o2)C1` (stereo not drawn) [Example 43, 2-(1-acryloylpyrrolidin-3-yl)-4-(4-phenoxyphenyl)oxazole-5-carboxamide], at BTK, the IC50 was less than 500 nM.

For the compound `C=CC(=O)N1CCN(c2ccc(C(N)=O)c(-c3ccc(OC4CCCCC4)cc3)n2)CC1` [Example 28, 6-(4-acryloylpiperazin-1-yl)-2-(4-(cyclohexyloxy)phenyl)nicotinamide], at BTK, the IC50 is less than 500 nM.

In the case of `C=CC(=O)N1CCC(c2ccc(C(N)=O)c(-c3ccc(Oc4ccccc4)cc3)n2)C1` (stereo not drawn) [Example 23, 6-(1-acryloylpyrrolidin-3-yl)-2-(4-phenoxyphenyl)pyridine-3-carboxamide], the IC50 on BTK is less than 500 nM.

On to `C=CC(=O)N1CCC(c2ccc(C#N)c(-c3ccc(Oc4ccccc4)cc3)n2)CC1` [Example 24, 6-(1-acryloylpiperidin-4-yl)-2-(4-phenoxyphenyl)pyridine-3-carbonitrile], for which, on BTK, the half-inhibitory concentration (IC50) is 500 to 1000 nM.

Values taken from patent publication US9951056B2, “Substituted nicotinamide inhibitors of BTK and their preparation and use in the treatment of cancer, inflammation and autoimmune disease” (BEIJING INNOCARE PHARMA TECH CO., LTD., priority 2013, dated 2018).
